# Test results: the supplement of paper PMC10307832
# Columns and labels:
# Assay in all cases: relative viability (nuclei count vs DMSO), 5 days (fraction); higher = more cells survive
# NCI-H2023 = settings: first compound 0.02 µM
# How it was run: (§1)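 Medians of duplicate plates are given as relative viability. That measure is the nuclei count in treated wells divided by the count in vehicle wells. Counts were taken on 4× images of lung cancer cell lines in 1536-well plates, 5 days after pin-tool dosing the day after seeding with one drug alone or a fixed anchor-drug dose plus five library-drug doses (not always all listed) in √10 steps.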
# NCI-H2170 = tested on: NCI-H2170
# How it was run: as §1
# NCI-H2347 = tested on: NCI-H2347
# How it was run: as §1
# NCI-H2405 = tested on: NCI-H2405
# How it was run: as §1
# NCI-H3122 = tested on: NCI-H3122
# How it was run: as §1
# NCI-H322M = tested on: NCI-H322M
# How it was run: as §1
# NCI-H441 = tested on: NCI-H441
# How it was run: as §1
# NCI-H520 = tested on: NCI-H520
# How it was run: as §1
# NCI-H647 = tested on: NCI-H647
# How it was run: as §1
# PC-14 = tested on: PC-14
# How it was run: as §1
# SW 900 = tested on: SW 900
# How it was run: as §1
# UMC-11 = tested on: UMC-11
# How it was run: as §1
smiles,measurement,setting,value
CC(=O)O[C@@]12CO[C@@H]1C[C@H](O)[C@@]1(C)C(=O)[C@H](O)C3=C(C)[C@@H](OC(=O)[C@H](O)[C@@H](NC(=O)OC(C)(C)C)c4ccccc4)C[C@@](O)([C@@H](OC(=O)c4ccccc4)[C@H]21)C3(C)C [Docetaxel] + Nc1nc2[nH]cc(CCc3ccc(C(=O)N[C@@H](CCC(=O)O)C(=O)O)cc3)c2c(=O)[nH]1 [Pemetrexed] (partner 0.2 µM),relative viability,NCI-H2023,0.0817
same,relative viability,NCI-H2170; first compound 0.0002 µM,0.26
same,relative viability,NCI-H2170; first compound 0.000632 µM,0.257
same,relative viability,NCI-H2170; first compound 0.002 µM,0.251
same,relative viability,NCI-H2170; first compound 0.006325 µM,0.177
same,relative viability,NCI-H2170; first compound 0.02 µM,0.174
same,relative viability,NCI-H2347; first compound 0.0002 µM,0.422
same,relative viability,NCI-H2347; first compound 0.000632 µM,0.446
same,relative viability,NCI-H2347; first compound 0.002 µM,0.419
same,relative viability,NCI-H2347; first compound 0.006325 µM,0.429
same,relative viability,NCI-H2347; first compound 0.02 µM,0.357
same,relative viability,NCI-H2405; first compound 0.0002 µM,1.01
same,relative viability,NCI-H2405; first compound 0.000632 µM,0.754
same,relative viability,NCI-H2405; first compound 0.002 µM,0.671
same,relative viability,NCI-H2405; first compound 0.006325 µM,0.405
same,relative viability,NCI-H2405; first compound 0.02 µM,0.389
same,relative viability,NCI-H3122; first compound 0.0002 µM,0.185
same,relative viability,NCI-H3122; first compound 0.000632 µM,0.196
same,relative viability,NCI-H3122; first compound 0.002 µM,0.193
same,relative viability,NCI-H3122; first compound 0.006325 µM,0.14
same,relative viability,NCI-H3122; first compound 0.02 µM,0.111
same,relative viability,NCI-H322M; first compound 0.0002 µM,0.552
same,relative viability,NCI-H322M; first compound 0.000632 µM,0.602
same,relative viability,NCI-H322M; first compound 0.002 µM,0.689
same,relative viability,NCI-H322M; first compound 0.006325 µM,0.642
same,relative viability,NCI-H322M; first compound 0.02 µM,0.486
same,relative viability,NCI-H441; first compound 0.000632 µM,0.253
same,relative viability,NCI-H441; first compound 0.002 µM,0.206
same,relative viability,NCI-H441; first compound 0.006325 µM,0.198
same,relative viability,NCI-H520; first compound 0.0002 µM,0.691
same,relative viability,NCI-H520; first compound 0.000632 µM,0.471
same,relative viability,NCI-H520; first compound 0.002 µM,0.316
same,relative viability,NCI-H520; first compound 0.006325 µM,0.207
same,relative viability,NCI-H520; first compound 0.02 µM,0.159
same,relative viability,NCI-H647; first compound 0.0002 µM,0.175
same,relative viability,NCI-H647; first compound 0.000632 µM,0.142
same,relative viability,NCI-H647; first compound 0.002 µM,0.103
same,relative viability,NCI-H647; first compound 0.006325 µM,0.122
same,relative viability,NCI-H647; first compound 0.02 µM,0.0856
same,relative viability,PC-14; first compound 0.0002 µM,0.13
same,relative viability,PC-14; first compound 0.000632 µM,0.144
same,relative viability,PC-14; first compound 0.002 µM,0.129
same,relative viability,PC-14; first compound 0.006325 µM,0.0511
same,relative viability,PC-14; first compound 0.02 µM,0.0414
same,relative viability,SW 900; first compound 0.0002 µM,0.462
same,relative viability,SW 900; first compound 0.000632 µM,0.332
same,relative viability,SW 900; first compound 0.002 µM,0.303
same,relative viability,SW 900; first compound 0.006325 µM,0.281
same,relative viability,SW 900; first compound 0.02 µM,0.24
same,relative viability,UMC-11; first compound 0.0002 µM,0.717
same,relative viability,UMC-11; first compound 0.000632 µM,0.698
same,relative viability,UMC-11; first compound 0.002 µM,0.325
same,relative viability,UMC-11; first compound 0.006325 µM,0.256
same,relative viability,UMC-11; first compound 0.02 µM,0.195
